Measured values reported in PubChem BioAssay AID1259407 (Chemical Carcinogenesis Research Information System (CCRIS), 2018).
Activity calls are given as the source filed them. No rule for the calls is given here.

Tested on: CCRIS mutagenicity, Ames/micronucleus/aberration tests
Assay: CCRIS mutagenicity studies
[1] = Test System: AMES SALMONELLA TYPHIMURIUM, Strain/Indicator: TA98, Metabolic Activation: NONE, Method: STANDARD PLATE
[2] = Test System: AMES SALMONELLA TYPHIMURIUM, Strain/Indicator: TA98, Metabolic Activation: RAT, LIVER, S-9, AROCLOR 1254, Method: STANDARD PLATE
[3] = Test System: AMES SALMONELLA TYPHIMURIUM, Strain/Indicator: TA100, Metabolic Activation: NONE, Method: STANDARD PLATE

Measured: mutagenic call

O=[N+]([O-])C(Cl)(Br)Br
inactive: Test System: Ames Salmonella typhimurium, Strain/Indicator: RSJ100, Metabolic Activation: None, Method: Standard Plate inactive; negative | Test System: Ames Salmonella typhimurium, Strain/Indicator: RSJ100, Metabolic Activation: Rat, Liver, S-9, Aroclor, Method: Standard Plate inactive; negative | Test System: Ames Salmonella typhimurium, Strain/Indicator: TA98, Metabolic Activation: None, Method: Standard Plate inactive; negative | Test System: Ames Salmonella typhimurium, Strain/Indicator: TA98, Metabolic Activation: Rat, Liver, S-9, Aroclor, Method: Standard Plate inactive; negative | Test System: Ames Salmonella typhimurium, Strain/Indicator: TA100, Metabolic Activation: None, Method: Standard Plate inactive; negative | Test System: Ames Salmonella typhimurium, Strain/Indicator: TA100, Metabolic Activation: Rat, Liver, S-9, Aroclor, Method: Standard Plate inactive; negative | Test System: Ames Salmonella typhimurium, Strain/Indicator: TA104, Metabolic Activation: None, Method: Standard Plate inactive; negative | Test System: Ames Salmonella typhimurium, Strain/Indicator: TA104, Metabolic Activation: Rat, Liver, S-9, Aroclor, Method: Standard Plate inactive; negative | Test System: Ames Salmonella typhimurium, Strain/Indicator: TPT100, Metabolic Activation: None, Method: Standard Plate inactive; negative

Nc1ncnc2nc[nH]c12
active: [2] active; positive
inactive: Test System: AMES SALMONELLA TYPHIMURIUM, Strain/Indicator: TA97, Metabolic Activation: NONE, Method: STANDARD PLATE inactive; negative | Test System: AMES SALMONELLA TYPHIMURIUM, Strain/Indicator: TA97, Metabolic Activation: RAT, LIVER, S-9, AROCLOR 1254, Method: STANDARD PLATE inactive; negative | [1] inactive; negative | [3] inactive; negative | Test System: AMES SALMONELLA TYPHIMURIUM, Strain/Indicator: TA100, Metabolic Activation: RAT, LIVER, S-9, AROCLOR 1254, Method: STANDARD PLATE inactive; negative

Nc1ccc(C(=O)O)cc1
inactive: Test System: AMES SALMONELLA TYPHIMURIUM, Strain/Indicator: TA98, Metabolic Activation: HAMSTER, LIVER, S-9, AROCLOR 1254 (10%), Method: PREINCUBATION inactive; negative | Test System: AMES SALMONELLA TYPHIMURIUM, Strain/Indicator: TA98, Metabolic Activation: NONE, Method: PREINCUBATION inactive; negative | Test System: AMES SALMONELLA TYPHIMURIUM, Strain/Indicator: TA98, Metabolic Activation: RAT, LIVER, S-9, AROCLOR 1254 (10%), Method: PREINCUBATION inactive; negative | Test System: AMES SALMONELLA TYPHIMURIUM, Strain/Indicator: TA100, Metabolic Activation: HAMSTER, LIVER, S-9, AROCLOR 1254 (10%), Method: PREINCUBATION inactive; negative | Test System: AMES SALMONELLA TYPHIMURIUM, Strain/Indicator: TA100, Metabolic Activation: NONE, Method: PREINCUBATION inactive; negative | Test System: AMES SALMONELLA TYPHIMURIUM, Strain/Indicator: TA100, Metabolic Activation: RAT, LIVER, S-9, AROCLOR 1254 (10%), Method: PREINCUBATION inactive; negative | Test System: AMES SALMONELLA TYPHIMURIUM, Strain/Indicator: TA1535, Metabolic Activation: HAMSTER, LIVER, S-9, AROCLOR 1254 (10%), Method: PREINCUBATION inactive; negative | Test System: AMES SALMONELLA TYPHIMURIUM, Strain/Indicator: TA1535, Metabolic Activation: NONE, Method: PREINCUBATION inactive; negative | Test System: AMES SALMONELLA TYPHIMURIUM, Strain/Indicator: TA1535, Metabolic Activation: RAT, LIVER, S-9, AROCLOR 1254 (10%), Method: PREINCUBATION inactive; negative | Test System: AMES SALMONELLA TYPHIMURIUM, Strain/Indicator: TA1537, Metabolic Activation: HAMSTER, LIVER, S-9, AROCLOR 1254 (10%), Method: PREINCUBATION inactive; negative | Test System: AMES SALMONELLA TYPHIMURIUM, Strain/Indicator: TA1537, Metabolic Activation: NONE, Method: PREINCUBATION inactive; negative | Test System: AMES SALMONELLA TYPHIMURIUM, Strain/Indicator: TA1537, Metabolic Activation: RAT, LIVER, S-9, AROCLOR 1254 (10%), Method: PREINCUBATION inactive; negative

O=C1Cc2cc3cc([N+](=O)[O-])ccc3cc2[C@H](O)[C@H]1O
inactive: [1] inactive; negative | [2] inactive; negative

CC(=O)Nc1ccc(Oc2ccc(Cl)cc2)cc1
inactive: [3] inactive; negative
active: Test System: AMES SALMONELLA TYPHIMURIUM, Strain/Indicator: TA100, Metabolic Activation: RAT, LIVER, S-9, KANECLOR 500, Method: STANDARD PLATE active; positive
